For assay [1], the system named is Mycobacterium tuberculosis H37Rv (ATCC 27294). As to the kind of experiment: Primary screen, Microplate Alamar Blue Assay (MABA), percent inhibition. In kind it is cell-based. The following applies: Table 5, Alamar assay, primary screening at 6.25 μg/ml; for inhibition at 6.25 µg/mL: Mycobacterium tuberculosis, read-out: % Inhib. The procedure, abridged: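 Single-concentration screen at 6.25 μg/ml (or molar equivalent of the heaviest congener in a series) against H37Rv grown in BACTEC 12B medium. Growth read by Microplate Alamar Blue Assay, reported as percent inhibition.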
For orientation: The colour change of resazurin is a common sign of viable cells or microbes.

Assay [2] concerns VERO cells. The following applies: ratio of IC50 in VERO cells to MIC (M. tuberculosis H37Rv).
A further assay deals with M. tuberculosis H37Rv. Description: Minimum inhibitory concentration (MIC) in the MABA. In kind it is cell-based, Mycobacterium tuberculosis. The following applies: Table 5, Alamar assay, M. tuberculosis H37Rv. Summed up: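 Run under the NIAID TAACF screening program against M. tuberculosis by fluorescence read-out. MIC taken as the lowest concentration giving 90% reduction in fluorescence relative to controls.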

Assay [3] has as its system Plasmodium falciparum chloroquine-susceptible strain D6. As to the kind of experiment: In vitro antimalarial drug susceptibility assay (radiolabeled hypoxanthine incorporation), strain D6. Type of assay: cell-based. The following applies: for IC50: Plasmodium falciparum, D6, 66 h, read-out: Strain D6 IC50, growth inhibition, chloroquine-susceptible strain D6, 66 h incubation.

For assay [4], the system named is D6 and W2 P. falciparum clones. In kind it is cell-based, Plasmodium falciparum. The following applies: IC50 (W2)/IC50 (D6) ratio.
Assay [5] has as its system VERO cells. As to the kind of experiment: cells. The following applies: Chlorocebus sabaeus, Table 5.
For assay [6], the system named is Plasmodium falciparum chloroquine-resistant strain W2. Description: microbe, parasite or virus in culture. In kind it is cell-based. The following applies: for IC50: Plasmodium falciparum, W2, 66 h, read-out: Strain W2 IC50, growth inhibition, chloroquine-resistant strain W2, 66 h incubation.
Another assay has as its system SR leukemia cell line. Description: NCI in vitro antiproliferative screen (SRB), SR. In kind it is cell-based, human. The following applies: after 48 h. The protocol: (§1) In preliminary tests, four compounds (1B14a, 1C44, 1C45, and 1C46) were chosen by NIH-NCI for in vitro screening. See Drug discovery and development program, National Cancer Institute, Bethesda, (NCI), http://dtp.nci.nih.gov. All tetraoxanes were evaluated in the 3-cell line (lung—NCI-H460, breast—MCF7, CNS-SF-268) one dose primary anticancer assay: growth percentage after 48 hours, at 100 μM concentration of tested compound. Two compounds were eliminated at this step (1B14a and 1C46), while the acid 1C44 and primary amide 1C45 were evaluated against the full panel of 60 human tumor cell lines starting with 10^−4 M concentration of investigated compounds.
(§2) The activity of numerous compounds of the present invention against various cancer cell lines was submitted to the Developmental Therapeutics Program (DTP) at the National Cancer Institute (NCI) of the National Institutes of Health (NIH) for screening.
(§3) The DTP Human Tumor Cell Line Screen utilizes 60 different human tumor cell lines, representing leukemia, melanoma and cancers of the lung, colon, brain, ovary, breast, prostate, and kidney according to conventional methods known in the art. See e.g. Alley, M. C., et al. (1988) Cancer Research 48:589-601; Grever, M. R., et al. (1992) Seminars in Oncology 19(6):622-638; and Boyd, M. R., and Paull, K. D. (1995) Drug Development Research 34:91-109, which are herein incorporated by reference.
(§4) Generally, the human tumor cell lines of the cancer screening panel are grown in RPMI 1640 medium containing 5% fetal bovine serum and 2 mM L-glutamine. For a typical screening experiment, cells are inoculated into 96 well microtiter plates in 100 μl at plating densities ranging from 5,000 to 40,000 cells/well depending on the doubling time of individual cell lines. After cell inoculation, the microtiter plates are incubated at 37° C., 5% CO2, 95% air and 100% relative humidity for 24 hours prior to addition of the compounds to be tested.
(§5) After 24 hours, two plates of each cell line are fixed in situ with TCA, to represent a measurement of the cell population for each cell line at the time of drug addition (Tz). Experimental drugs are solubilized in dimethyl sulfoxide at 400-fold the desired final maximum test concentration and stored frozen prior to use. At the time of drug addition, an aliquot of frozen concentrate is thawed and diluted to twice the desired final maximum test concentration with complete medium containing 50 μg/ml gentamicin. Additional four, 10-fold or ½ log serial dilutions are made to provide a total of five drug concentrations plus control. Aliquots of 100 μl of these different drug dilutions are added to the appropriate microtiter wells already containing 100 μl of medium, resulting in the required final drug concentrations.
(§6) Following drug addition, the plates are incubated for an additional 48 hours at 37° C., 5% CO2, 95% air, and 100% relative humidity. For adherent cells, the assay is terminated by the addition of cold TCA. Cells are fixed in situ by the gentle addition of 50 μl of cold 50% (w/v) TCA (final concentration, 10% TCA) and incubated for 60 minutes at 4° C. The supernatant is discarded, and the plates are washed five times with tap water and air dried. Sulforhodamine B (SRB) solution (100 μl) at 0.4% (w/v) in 1% acetic acid is added to each well, and plates are incubated for 10 minutes at room temperature. […]

Assay [7] has as its system KM-12 colon cancer cell line. As to the kind of experiment: NCI in vitro antiproliferative screen (SRB), KM-12. In kind it is cell-based, human. The following applies: KM-12, after 48 h. The protocol: as §1, §2, §3, §4, §5, §6
In assay [8] the test system is UO-31 renal cancer cell line. As to the kind of experiment: NCI in vitro antiproliferative screen (SRB), UO-31. Type of assay: cell-based, human. The following applies: UO-31, after 48 h. The method, then:
as §1, §2, §3, §4, §5, §6

In assay [9] the test system is TK-10 renal cancer cell line. Description: NCI in vitro antiproliferative screen (SRB), TK-10. Type of assay: cell-based, human. The following applies: TK-10, after 48 h. The method, then:
as §1, §2, §3, §4, §5, §6

For assay [10], the system named is IGROV1 ovarian cancer cell line. As to the kind of experiment: NCI in vitro antiproliferative screen (SRB), IGROV1. The following applies: IGROV1, after 48 h. Type of assay: cell-based, human. The protocol: as §1, §2, §3, §4, §5, §6
Assay [11] has as its system MALME-3M melanoma cancer cell line. Description: NCI in vitro antiproliferative screen (SRB), MALME-3M. Type of assay: cell-based, human. The following applies: MALME-3M, after 48 h. The method, then:
as §1, §2, §3, §4, §5, §6

Setting [12] is: Mycobacterium tuberculosis, H37RV, read-out: MIC.
The mark [13] stands for this setting: Homo sapiens, read-out: LC50 (the source's name).

≈ marks a conversion by molar mass, not a printed value. Read-outs that look alike come from different tables or passages of the source.

As a reminder, the MIC is the lowest concentration that inhibits growth of the organism. One may read the IC50 as the midpoint of a concentration-inhibition curve. With `CCNC(=O)CCC(C)[C@H]1CCC2C3C(C[C@H](OC(C)=O)[C@@]21C)[C@@]1(C)CCC2(C[C@H]1C[C@H]3OC(C)=O)OOC1(CCC(CC)CC1)OO2` (single isomer, unassigned) [27/1C37, N-Ethyl-7α,12α-Diacetoxy-5β-cholan-24-amide-3-spiro-6′-(1′,2′,4′,5′-tetraoxacyclohexane)-3′-spiro-1″-((4″R or S)-ethyl)cyclohexane], the inhibition at 6.25 µg/mL in assay [1] is 96%. Besides, the “SI (selectivity index)” value in the assay on VERO cells [2] is on record as 1.22. In the assay on M. tuberculosis H37Rv, this compound came in with an MIC of 1.56 µg/mL (≈ 2.31 µM). The half-maximal inhibitory concentration (IC50) was 0.0134 µg/mL (≈ 0.0198 µM) in assay [3], 1.91 µg/mL (≈ 2.83 µM) with VERO cells [5] and 6.46 ng/mL (≈ 0.00956 µM) in assay [6]. The “Resistance Index” value in assay [4] amounted to 0.48.
Take `CCCNC(=O)CCC(C)[C@H]1CCC2C3C(C[C@H](OC(C)=O)[C@@]21C)[C@@]1(C)CCC2(C[C@H]1C[C@H]3OC(C)=O)OOC1(CCC(CC)CC1)OO2` (single isomer, unassigned) [28/1C38, N-(n-Propyl)-7α,12α-Diacetoxy-5β-cholan-24-amide-3-spiro-6′-(1′,2′,4′,5′-tetraoxacyclohexane)-3′-spiro-1″-((4″R or S)-ethyl)cyclohexane]: in assay [1], the “% Inhib” value came to 92%. Besides, in the assay with VERO cells [2], the “SI (selectivity index)” value worked out at 0.36. In the assay on M. tuberculosis H37Rv (setting [12]), the MIC was determined as 6.25 µg/mL (≈ 9.06 µM). Further, the “Strain D6 IC50” value in [3] (growth inhibition, chloroquine-susceptible strain D6, 66 h incubation) stood at 5.76 ng/mL. In addition, in assay [4], the “Resistance Index” value is 0.54. The same compound registered an IC50 with VERO cells [5] of 2.28 µg/mL (≈ 3.3 µM). Moreover, the “Strain W2 IC50” value in assay [6] (growth inhibition, chloroquine-resistant strain W2, 66 h incubation) was determined as 3.12 ng/mL.
In the case of `CC(=O)O[C@H]1CC2C(C3CC[C@H](C(C)CCC(N)=O)[C@]31C)[C@H](OC(C)=O)C[C@@H]1CC3(CC[C@]21C)OOC1(CCCCC1)OO3` (stereo partly drawn) [10/1C19, 7α,12α-Diacetoxy-5β-cholan-24-amide-3-spiro-6′-(1′,2′,4′,5′-tetraoxacyclohexane)-3′-spirocyclohexane], the inhibition at 6.25 µg/mL in assay [1] stood at 99%. Further, the “SI (selectivity index)” value in the assay on VERO cells [2] is given as 0.79. In the assay on M. tuberculosis H37Rv (setting [12]), the MIC stood at 6.25 µg/mL (≈ 10.1 µM). Also, the values for the IC50 (in assay [3]; in the assay with VERO cells [5]; in assay [6]) were 0.00733 µg/mL (≈ 0.0118 µM), 4.94 µg/mL (≈ 7.97 µM) and 2.94 ng/mL (≈ 0.00474 µM), respectively. For the same compound, in assay [4], the “Resistance Index” value is on record as 0.40.
With `COC(=O)CNC(=O)CCC(C)[C@H]1CCC2C3C(C[C@H](OC(C)=O)[C@@]21C)[C@@]1(C)CCC2(C[C@H]1C[C@H]3OC(C)=O)OOC1(CCCCC1)OO2` (stereo partly drawn) [12/1C21, N-(Methyl ethanoate-2-yl)-7α,12α-diacetoxy-5β-cholan-24-amide-3-spiro-6′-(1′,2′,4′,5′-tetraoxacyclohexane)-3′-spirocyclohexane], in [1], the inhibition at 6.25 µg/mL stood at 99%. In addition, the “SI (selectivity index)” value with VERO cells [2] is recorded as 0.87. Further, the MIC in the assay with M. tuberculosis H37Rv (setting [12]) was found to be 6.25 µg/mL (≈ 9.03 µM). Besides, the IC50 in assay [3] was 0.0152 µg/mL (≈ 0.022 µM); in the assay on VERO cells [5] it was 5.42 µg/mL (≈ 7.83 µM); in [6] it was 7.45 ng/mL (≈ 0.0108 µM). Also, the “Resistance Index” value in assay [4] is 0.49; in assay [4] (listed as 12) it was “ca. 0.5”.
For `CNC(=O)CCC(C)[C@H]1CCC2C3C(C[C@H](OC(C)=O)[C@@]21C)[C@@]1(C)CCC2(C[C@H]1C[C@H]3OC(C)=O)OOC1(CCCCC1C)OO2` (stereo partly drawn) [14/1C23, N-Methyl-7α,12α-diacetoxy-5β-cholan-24-amide-3-spiro-6′-(1′,2′,4′,5′-tetraoxacyclohexane)-3′-spiro-1″-(2″-methyl)cyclohexane], in assay [1], the inhibition at 6.25 µg/mL came to 99%. In the assay with VERO cells [2], the “SI (selectivity index)” value came to 1.8. The MIC in the assay on M. tuberculosis H37Rv (setting [12]) turned out to be 3.13 µg/mL (≈ 4.83 µM). Moreover, the IC50 came out at 0.0102 µg/mL (≈ 0.0158 µM) in [3], 5.63 µg/mL (≈ 8.69 µM) in the assay on VERO cells [5] and 6.49 ng/mL (≈ 0.01 µM) in assay [6]. In assay [4], the “Resistance Index” value was 0.64.
With `CCNC(=O)CCC(C)[C@H]1CCC2C3C(C[C@H](OC(C)=O)[C@@]21C)[C@@]1(C)CCC2(C[C@H]1C[C@H]3OC(C)=O)OOC1(CCCCC1C)OO2` (stereo partly drawn) [15/1C24, N-Ethyl-7α,12α-diacetoxy-5β-cholan-24-amide-3-spiro-6′-(1′,2′,4′,5′-tetraoxacyclohexane)-3′-spiro-1″-(2″-methyl)cyclohexane], the inhibition at 6.25 µg/mL in [1] was 98%. Further, the “SI (selectivity index)” value with VERO cells [2] was 2.24. The MIC with M. tuberculosis H37Rv (setting [12]) stood at 3.13 µg/mL (≈ 4.73 µM). The figures for the IC50 (in assay [3]; with VERO cells [5]; in assay [6]) were 0.00837 µg/mL (≈ 0.0126 µM), 7.02 µg/mL (≈ 10.6 µM) and 4.61 ng/mL (≈ 0.00697 µM), respectively. For the same compound, in assay [4], the “Resistance Index” value was found to be 0.55.
The GI50 is the concentration that inhibits growth by half. As usually defined, the TGI is the concentration at which net growth stops. On to `C[C@@H]1CC[C@H]2[C@@H](C)C(=O)O[C@@H]3O[C@@]4(C)CC[C@@H]1[C@]32OO4` [Artemisinin, reference compound], for which the GI50 in the assay on SR leukemia cell line (Homo sapiens) worked out at 100 µM; in assay [7] (Homo sapiens, KM12), 100 µM; in assay [8] (Homo sapiens), 79.4 µM; in assay [9] (Homo sapiens), 100 µM; in assay [10] (Homo sapiens, IGROV-1), 79.4 µM; in assay [11] (Homo sapiens, read-out: GI50), 100 µM. Further, the CC50 was 100 µM with SR leukemia cell line (setting [13]); 100 µM in assay [7] (Homo sapiens, KM12, read-out: LC50 (the source's name)); 100 µM in assay [8] (setting [13]); 100 µM in assay [9] (setting [13]); 100 µM in [11] (setting [13]). The TGI (in the assay with SR leukemia cell line; in assay [7]; in assay [8]; in assay [9]; in assay [10]; in assay [11]) was 100 µM each time.
